This is an account of results in paper PMC3261785 (Journal of Medicinal Chemistry, 2011).

Entries after “also recorded” stand apart in the source; their conditions may differ.

Sequence of human A2AAR (P29274 whole entry): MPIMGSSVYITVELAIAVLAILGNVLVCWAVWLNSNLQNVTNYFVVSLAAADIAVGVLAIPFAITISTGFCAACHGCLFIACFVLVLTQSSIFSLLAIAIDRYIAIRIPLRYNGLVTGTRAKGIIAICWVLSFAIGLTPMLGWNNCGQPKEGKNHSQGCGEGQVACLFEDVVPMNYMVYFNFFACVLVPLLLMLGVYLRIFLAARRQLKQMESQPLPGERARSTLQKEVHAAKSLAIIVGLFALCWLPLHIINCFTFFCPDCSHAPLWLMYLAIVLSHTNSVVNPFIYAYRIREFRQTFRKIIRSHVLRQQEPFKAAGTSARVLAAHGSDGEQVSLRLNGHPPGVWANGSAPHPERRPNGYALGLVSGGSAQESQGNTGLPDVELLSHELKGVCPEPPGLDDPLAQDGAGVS

The experiment has as its target human A2AAR (Homo sapiens, UniProt P29274). The experiment in a line: Radioligand binding assay at A2AAR, membranes of HEK-293 cells, [3H]16. Particulars: comparison within the amino acid conjugate series and with parent 16.
Turning to `CCNC(=O)[C@H]1O[C@@H](n2cnc3c(N)nc(NCCc4ccc(CCC(=O)N[C@H](CCCNC(=N)N)C(=O)O)cc4)nc32)[C@H](O)[C@@H]1O` [Compound 36], the “Relative A2AAR binding affinity (in words)” value is listed as “some gain in affinity”.

For `CCNC(=O)[C@H]1O[C@@H](n2cnc3c(N)nc(NCCc4ccc(CCC(=O)N[C@H](Cc5ccccc5)C(=O)O)cc4)nc32)[C@H](O)[C@@H]1O` [Compound 38], the “Relative A2AAR binding affinity (in words)” value is reported as “most potent; also recorded: some gain in affinity”.

With `CCNC(=O)[C@H]1O[C@@H](n2cnc3c(N)nc(NCCc4ccc(CCC(=O)N[C@H](Cc5c[nH]cn5)C(=O)O)cc4)nc32)[C@H](O)[C@@H]1O` [Compound 42], the “Relative A2AAR binding affinity (in words)” value was “most potent; also recorded: some gain in affinity”.
